How the values were obtained:
[1] = Experiment 2, formulation screening: dissolution of paclitaxel; format: physicochemical
[2] = in the human body; cited from earlier work
[3] = cited from earlier work

| Structure (SMILES) | solubilizing (hydrotropic) effect on paclitaxel ([1]; alone) | solubilizing (hydrotropic) effect on paclitaxel ([1]; used together with 1,2-propanediol) | effective bioavailability [2] | solubility in organic solvents (in words) ([3]; methanol, ethanol or chloroform) | solubility in water (in words) ([3]; water) |
| --- | --- | --- | --- | --- | --- |
| CC(=O)Oc1ccccc1C(=O)[O-].[Na+] [乙酰水杨酸钠] | 具有助溶作用 | 具有增加的助溶作用 | – | – | – |
| CC(=O)O[C@H]1C(=O)[C@@]2(C)[C@H]([C@H](OC(=O)c3ccccc3)[C@]3(O)C[C@H](OC(=O)[C@H](O)[C@@H](NC(=O)c4ccccc4)c4ccccc4)C(C)=C1C3(C)C)[C@]1(OC(C)=O)CO[C@@H]1C[C@@H]2O [紫杉醇, 5β,20-环氧-1,2α,4,7β,10β,13α-六羟基紫杉烷-11-烯-9-酮-4,10-二乙酸酯-2-苯甲酸酯-13[(2’R,3’S)-N-苯甲酰-3-苯基异丝氨酸酯]] | – | – | 低 | 溶解 | 几乎不溶 |

From patent CN103330941A, “一种紫杉醇注射剂的药物组合物” (Individual, priority 2013, dated 2013)
